Test results from ChEMBL document CHEMBL6103619, “Discovery of a Novel CRBN-Recruiting cGAS PROTAC Degrader for the Treatment of Ulcerative Colitis” (J Med Chem, 2025).

Experiments:
Type in all cases: cell-based
[1] = Inhibition of dsDNA-induced cGAS signaling pathway in mouse RAW-Lucia ISG cells preincubated with compound for 24 hrs followed by HT-DNA addition and measured after 24 hrs by QUANTI-Luc luciferase reagent based assay
[2] = Inhibition of dsDNA-induced cGAS signaling pathway in human THP1-Lucia ISG cells preincubated with compound for 24 hrs followed by HT-DNA addition and measured after 24 hrs by QUANTI-Luc luciferase reagent based assay
[3] = biological target: Protein cereblon/Cyclic GMP-AMP synthase (Homo sapiens, UniProt Q96SW2+Q8N884); test: PROTAC activity at CRBN/cGAS in human THP-1 cells assessed as induction of cGAS degradation at 10 uM preincubated with compound for 40 hrs followed by HT-DNA stimulation and measured after 8 hrs by Western blot analysis relative to control; details: time 48.0 hrs
Sequence of Protein cereblon/Cyclic GMP-AMP synthase (Q8N884 whole entry, looked up): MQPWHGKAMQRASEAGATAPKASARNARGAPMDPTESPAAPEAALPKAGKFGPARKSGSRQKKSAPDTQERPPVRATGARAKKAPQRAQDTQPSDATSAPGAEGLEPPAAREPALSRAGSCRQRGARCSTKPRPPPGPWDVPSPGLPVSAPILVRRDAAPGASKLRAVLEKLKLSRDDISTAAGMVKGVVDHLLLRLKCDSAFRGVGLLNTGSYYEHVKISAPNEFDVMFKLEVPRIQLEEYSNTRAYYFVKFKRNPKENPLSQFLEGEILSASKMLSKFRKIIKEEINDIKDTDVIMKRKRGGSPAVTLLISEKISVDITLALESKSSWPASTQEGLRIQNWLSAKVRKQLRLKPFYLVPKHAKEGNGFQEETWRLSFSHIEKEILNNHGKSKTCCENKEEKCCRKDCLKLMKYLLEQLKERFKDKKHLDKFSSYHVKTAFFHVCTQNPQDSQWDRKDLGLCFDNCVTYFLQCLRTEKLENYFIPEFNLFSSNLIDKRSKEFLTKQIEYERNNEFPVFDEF
Sequence of Protein cereblon/Cyclic GMP-AMP synthase (Q96SW2 whole entry, looked up): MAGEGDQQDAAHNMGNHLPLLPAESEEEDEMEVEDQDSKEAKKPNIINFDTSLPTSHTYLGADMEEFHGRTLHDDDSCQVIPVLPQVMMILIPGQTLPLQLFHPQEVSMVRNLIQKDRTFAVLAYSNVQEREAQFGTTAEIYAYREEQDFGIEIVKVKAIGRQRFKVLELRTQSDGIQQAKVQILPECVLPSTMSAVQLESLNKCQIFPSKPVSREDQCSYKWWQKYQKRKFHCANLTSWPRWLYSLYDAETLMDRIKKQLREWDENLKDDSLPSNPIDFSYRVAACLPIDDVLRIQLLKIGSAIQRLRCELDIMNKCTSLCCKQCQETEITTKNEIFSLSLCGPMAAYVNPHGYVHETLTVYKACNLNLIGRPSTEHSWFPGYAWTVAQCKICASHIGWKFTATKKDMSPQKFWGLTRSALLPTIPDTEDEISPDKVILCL

IC50 [1] [µM]	IC50 [2] [µM]	Activity [3] [%]	SMILES
> 50	> 50	21.2	O=C1CCC(N2C(=O)c3cccc(NCCCCCCCCC(=O)N4CC(Cn5cc(-c6cc(Cl)c(Cl)c7[nH]c8c(c67)CN(C(=O)CO)CC8)cn5)C4)c3C2=O)C(=O)N1 (stereo unspecified)
> 50	34.2	38.2	Cn1ccc(-c2cc(Cl)c(Cl)c3[nH]c4c(c23)CN(C(=O)CNC(=O)COCCNc2cccc3c2C(=O)N(C2CCC(=O)NC2=O)C3=O)CC4)n1 (stereo unspecified)
> 50	27.4	46.8	Cn1ccc(-c2cc(Cl)c(Cl)c3[nH]c4c(c23)CN(C(=O)CNC(=O)COCCOCCNc2cccc3c2C(=O)N(C2CCC(=O)NC2=O)C3=O)CC4)n1 (stereo unspecified)
> 50	28.1	34.6	Cn1ccc(-c2cc(Cl)c(Cl)c3[nH]c4c(c23)CN(C(=O)CNC(=O)COCCOCCOCCNc2cccc3c2C(=O)N(C2CCC(=O)NC2=O)C3=O)CC4)n1 (stereo unspecified)
28.3	16.3	55.1	Cn1ccc(-c2cc(Cl)c(Cl)c3[nH]c4c(c23)CN(C(=O)CNC(=O)CCCCCCNc2cccc3c2C(=O)N(C2CCC(=O)NC2=O)C3=O)CC4)n1 (stereo unspecified)
> 50	33.6	44.3	O=C1CCC(N2C(=O)c3cccc(NCCOCCOCC(=O)N4CCC(Cn5cc(-c6cc(Cl)c(Cl)c7[nH]c8c(c67)CN(C(=O)CO)CC8)cn5)CC4)c3C2=O)C(=O)N1 (stereo unspecified)
> 50	21.4	57.7	Cn1ccc(-c2cc(Cl)c(Cl)c3[nH]c4c(c23)CN(C(=O)CNC(=O)CCCCCC#Cc2cccc3c2C(=O)N(C2CCC(=O)NC2=O)C3=O)CC4)n1 (stereo unspecified)
25.3	12.7	54.4	Cn1ccc(-c2cc(Cl)c(Cl)c3[nH]c4c(c23)CN(C(=O)CNC(=O)CCCCCC#Cc2cccc3c2CN(C2CCC(=O)NC2=O)C3=O)CC4)n1 (stereo unspecified)
16.1	8.1	61.5	Cn1ccc(-c2cc(Cl)c(Cl)c3[nH]c4c(c23)CN(C(=O)CNC(=O)CCCCNc2cccc3c2C(=O)N(C2CCC(=O)NC2=O)C3=O)CC4)n1 (stereo unspecified)
> 50	> 50	4.3	Cn1ccc(-c2cc(Cl)c(Cl)c3[nH]c4c(c23)CN(C(=O)CNC(=O)CCCCCCCCCCCNc2cccc3c2C(=O)N(C2CCC(=O)NC2=O)C3=O)CC4)n1 (stereo unspecified)

Continued, compound first:

SMILES	IC50 [1] [µM]	IC50 [2] [µM]	Activity [3] [%]
Cn1ccc(-c2cc(Cl)c(Cl)c3[nH]c4c(c23)CN(C(=O)CCCCCCC#Cc2cccc3c2CN(C2CCC(=O)NC2=O)C3=O)CC4)n1 (stereo unspecified)	> 50	28.8	44.7
Cn1ccc(-c2cc(Cl)c(Cl)c3[nH]c4c(c23)CN(C(=O)CNC(=O)CCN2CCN(C(=O)COc3cccc5c3C(=O)N(C3CCC(=O)NC3=O)C5=O)CC2)CC4)n1 (stereo unspecified)	> 50	> 50	15.1
Cn1ccc(-c2cc(Cl)c(Cl)c3[nH]c4c(c23)CN(C(=O)CNC(=O)CCCCCNc2cccc3c2C(=O)N(C2CCC(=O)NC2=O)C3=O)CC4)n1 (stereo unspecified)	26.7	12.5	59.3
Cn1ccc(-c2cc(Cl)c(Cl)c3[nH]c4c(c23)CN(C(=O)CNC(=O)CCNc2cccc3c2C(=O)N(C2CCC(=O)NC2=O)C3=O)CC4)n1 (stereo unspecified)	> 50	35.1	42
Cn1ccc(-c2cc(Cl)c(Cl)c3[nH]c4c(c23)CN(C(=O)CNC(=O)CCCCC#Cc2cccc3c2C(=O)N(C2CCC(=O)NC2=O)C3=O)CC4)n1 (stereo unspecified)	> 50	18.9	48.5
O=C1CCC(N2C(=O)c3cccc(NCCOCCOCCOCCOCCOCCC(=O)N4CCC(Cn5cc(-c6cc(Cl)c(Cl)c7[nH]c8c(c67)CN(C(=O)CO)CC8)cn5)CC4)c3C2=O)C(=O)N1 (stereo unspecified)	> 50	> 50	10.4
Cn1ccc(-c2cc(Cl)c(Cl)c3[nH]c4c(c23)CN(C(=O)CNC(=O)CCCCCCCNc2cccc3c2C(=O)N(C2CCC(=O)NC2=O)C3=O)CC4)n1 (stereo unspecified)	> 50	29.6	34.2
Cn1ccc(-c2cc(Cl)c(Cl)c3[nH]c4c(c23)CN(C(=O)CNC(=O)CCCC#Cc2cccc3c2C(=O)N(C2CCC(=O)NC2=O)C3=O)CC4)n1 (stereo unspecified)	30.8	12.8	56.1
O=C1CCC(N2C(=O)c3cccc(NCCCCCC(=O)N4CCC(Cn5cc(-c6cc(Cl)c(Cl)c7[nH]c8c(c67)CN(C(=O)CO)CC8)cn5)CC4)c3C2=O)C(=O)N1 (stereo unspecified)	39.8	20.5	57.7
O=C1CCC(N2C(=O)c3cccc(NCCCCCCC(=O)N4CCC(Cn5cc(-c6cc(Cl)c(Cl)c7[nH]c8c(c67)CN(C(=O)CO)CC8)cn5)CC4)c3C2=O)C(=O)N1 (stereo unspecified)	> 50	25.8	44.7
O=C1CCC(N2C(=O)c3cccc(NCCCCCC(=O)N4CC(Cn5cc(-c6cc(Cl)c(Cl)c7[nH]c8c(c67)CN(C(=O)CO)CC8)cn5)C4)c3C2=O)C(=O)N1 (stereo unspecified)	> 50	> 50	36.3
Cn1ccc(-c2cc(Cl)c(Cl)c3[nH]c4c(c23)CN(C(=O)CNC(=O)CCC2CCN(C(=O)COc3cccc5c3C(=O)N(C3CCC(=O)NC3=O)C5=O)CC2)CC4)n1 (stereo unspecified)	> 50	> 50	18.9
Cn1ccc(-c2cc(Cl)c(Cl)c3[nH]c4c(c23)CN(C(=O)CNC(=O)CN2CCN(C(=O)COc3cccc5c3C(=O)N(C3CCC(=O)NC3=O)C5=O)CC2)CC4)n1 (stereo unspecified)	> 50	> 50	18.7
Cn1ccc(-c2cc(Cl)c(Cl)c3[nH]c4c(c23)CN(C(=O)CNC(=O)CCOCCOCCOCCOCCNc2cccc3c2C(=O)N(C2CCC(=O)NC2=O)C3=O)CC4)n1 (stereo unspecified)	> 50	> 50	20.5
Cn1ccc(-c2cc(Cl)c(Cl)c3[nH]c4c(c23)CN(C(=O)CCCCC#Cc2cccc3c2CN(C2CCC(=O)NC2=O)C3=O)CC4)n1 (stereo unspecified)	> 50	28.4	45.1
Cn1ccc(-c2cc(Cl)c(Cl)c3[nH]c4c(c23)CN(C(=O)CNC(=O)CCCCC#Cc2ccc3c(c2)CN(C2CCC(=O)NC2=O)C3=O)CC4)n1 (stereo unspecified)	> 50	> 50	21.9
Cn1ccc(-c2cc(Cl)c(Cl)c3[nH]c4c(c23)CN(C(=O)CNC(=O)CCCCCCCCCCNc2cccc3c2C(=O)N(C2CCC(=O)NC2=O)C3=O)CC4)n1 (stereo unspecified)	> 50	38.8	20.4
O=C1CCC(N2C(=O)c3cccc(NCCCC(=O)N4CCC(Cn5cc(-c6cc(Cl)c(Cl)c7[nH]c8c(c67)CN(C(=O)CO)CC8)cn5)CC4)c3C2=O)C(=O)N1 (stereo unspecified)	> 50	> 50	4.7
Cn1ccc(-c2cc(Cl)c(Cl)c3[nH]c4c(c23)CN(C(=O)CNC(=O)CCCCCCCCNc2cccc3c2C(=O)N(C2CCC(=O)NC2=O)C3=O)CC4)n1 (stereo unspecified)	> 50	37.1	30.4
Cn1ccc(-c2cc(Cl)c(Cl)c3[nH]c4c(c23)CN(C(=O)CNC(=O)CCCCCCCCCNc2cccc3c2C(=O)N(C2CCC(=O)NC2=O)C3=O)CC4)n1 (stereo unspecified)	> 50	> 50	12.4
Cn1ccc(-c2cc(Cl)c(Cl)c3[nH]c4c(c23)CN(C(=O)CNC(=O)CCCC#Cc2ccc3c(c2)CN(C2CCC(=O)NC2=O)C3=O)CC4)n1 (stereo unspecified)	> 50	> 50	25.6
O=C1CCC(N2C(=O)c3cccc(NCCOCCOCCOCCOCCOCCOCCOCCOCCC(=O)N4CCC(Cn5cc(-c6cc(Cl)c(Cl)c7[nH]c8c(c67)CN(C(=O)CO)CC8)cn5)CC4)c3C2=O)C(=O)N1 (stereo unspecified)	> 50	> 50	4.6
